Measured values taken from patent publication US4946860A, “Benzothiopyranyl derivatives as HMG-CoA reductase inhibitors” (Rorer Pharmaceutical Corporation, priority 1989, dated 1990).

Experiments:
HMGR enzyme = test: HMGR Screen (solubilized rat liver microsomal HMG-CoA reductase, [14C] HMG-CoA); type: biochemical; conditions: 20 μM HMG-CoA, pH 7.0, 37° C.
Protocol: (§1) The utility of the claimed compounds is measured by the test methods described hereunder. […] 1976, Biochemistry.
The first method used (designated HMGR Screen) was as follows: Male rats were acclimated to an alternate 12 hour light-dark cycle for a period of 2-3 weeks. The animals, weighing 180-230g, were fed ad libitum a rat chow containing 2% cholestyramine for 5 days prior to sacrifice at the mid-dark period. Liver microsomes were prepared and HMGR enzyme was solubilized from the microsomes by freeze-thaw manipulation in high ionic strength buffer. The enzyme preparation was stored at -80° C. in 300 μl portion samples. Prior to use, the enzyme was activated at 37° C. for 30 minutes in a reaction mixture. The reaction mixture was contained in a volume of 240 μl1:0.14M potassium phosphate buffer (pH 7.0); 0.18M KCl; 3.5 mM EDTA; 10 mM dithiothreitol; 0.1 mg/ml BSA; 30,000 cpm of [^14 C] HMG-CoA; 20 μM HMG-CoA; and 200 μg of solubilized enzyme with and without inhibitors (in 10 μl DMSO). After 5 minutes incubation at 37° C. the reaction was initiated with 0.2 mM NADPH. The final assay volume was 300 μl. After 10 minutes the reaction mixture was terminated with 100 μl of 1N HCl. […] After the addition of 10 ml of Aquasol , radioactivities of the samples were measured in a scintillation counter.

cholesterol synthesis = test: Ex-Vivo Non-Fasted (cholesterol synthesis from [14C] sodium acetate in liver slices of orally dosed fed rats); parameters: species or system rat; conditions: oral in 0.5% methocel, livers removed two hours after dosing, dose not given
Protocol: as §1
The second method used (designated Ex-Vivo Non-Fasted and Ex-Vivo Fasted) used was as follows: Rats of 170-210g were maintained on a low cholesterol diet for one week prior to use. Drugs were given orally in 0.5% methocel to both fed and fasted (fasted for 16 hours) rats. After one hour (fasted rats) and two hours (fed rats) the rats were decapitated and their livers removed and transferred to chilled oxygenated Kreb's-Ringer-bicarbonate buffer (pH 7.4). The livers were then chopped into 0.5 mm slices using a McIlwain tissue chopper, and were suspended in the same buffer. Aliquots of the suspension containing 100 mg tissue were pipetted to culture tubes which contained [^14 C] sodium acetate (2 μCi, 1 mM). The tubes were gassed with 95% O2 /5%CO2, capped and incubated at 37° C. in a shaking water bath at 150 oscillation/minute for two hours. The final assay volume was 1.0 ml. After incubation the reaction was stopped by the addition of 1.0 ml of 15% KOH in ethanol, and the internal standard ^3 H-cholesterol was added. The tubes were recapped and the samples were saponified at 75° C. for two hours with periodic mixing. […] After visualization with iodine the cholesterol spots were cut and counted with liquid scintillation fluid. […]

`CC1(C)Sc2ccccc2C(c2ccc(F)cc2)=C1/C=C/[C@@H]1C[C@@H](O)CC(=O)O1` (relative stereo) [Example 1G] showed an IC50 (HMGR enzyme) of 9.8 nM and an inhibited cholesterol synthesis (cholesterol synthesis) of 43%.
